Measured values as given in PMC3216401 (Antiviral research, 2011).
Like-named read-outs stand apart in the source and are kept apart here.

What was measured:
[1] = system: influenza A/CA/07/2009 (H1N1); assay: microbe, parasite or virus in culture; format: cell-based; settings: H1N1, MDCK, read-out: IC90, VYR Assay
[2] = system: Influenza A/Sydney/05/97 (H3N2); assay: microbe, parasite or virus in culture; format: cell-based; settings: H3N2, MDCK, read-out: IC90, VYR Assay
[3] = system: A/Hong Kong/213/2003H (A/Hong Kong/213/2003 × Ann Arbor/6/60 hybrid); assay: microbe, parasite or virus in culture; format: cell-based; settings: Influenza A virus, MDCK, read-out: IC90, VYR Assay
[4] = system: A/Vietnam/1203/04H (A/Vietnam/1203/04 × Ann Arbor/6/60 hybrid); assay: microbe, parasite or virus in culture; format: cell-based; settings: Influenza A virus, MDCK, read-out: IC90, VYR Assay
A/Gull/PA/4175/83 (H5N1) [5] = assay: microbe, parasite or virus in culture; format: cell-based; settings: Influenza A virus, H5N1, MDCK, read-out: IC90, VYR Assay
A/Duck/MN/1525/81 (H5N1) [6] = assay: microbe, parasite or virus in culture; format: cell-based; settings: Influenza A virus, H5N1, MDCK, read-out: IC90, VYR Assay
B/Florida/4/2006 [7] = assay: microbe, parasite or virus in culture; format: cell-based; settings: Influenza B virus, MDCK, read-out: IC90, VYR Assay
influenza viruses = assay: microbe, parasite or virus in culture; format: cell-based, influenza A and B viruses; settings: Influenza A virus
[8] = system: influenza A/CA/07/2009 (H1N1)
[9] = system: influenza A/CA/07/2009 (H1N1); remark: listed apart in the source
[10] = system: Influenza A/Sydney/05/97 (H3N2)
[11] = system: A/Brisbane/10/2007 (H3N2)
[12] = system: A/Hong Kong/213/2003H (A/Hong Kong/213/2003 × Ann Arbor/6/60 hybrid)
A/Gull/PA/4175/83 (H5N1) [13] = system: A/Gull/PA/4175/83 (H5N1)
A/Gull/PA/4175/83 (H5N1) [14] = system: A/Gull/PA/4175/83 (H5N1); remark: listed apart in the source
A/Duck/MN/1525/81 (H5N1) [15] = system: A/Duck/MN/1525/81 (H5N1)
B/Malaysia/2506/2004 [16] = system: B/Malaysia/2506/2004
B/Malaysia/2506/2004 [17] = system: B/Malaysia/2506/2004; remark: listed apart in the source
B/Florida/4/2006 [18] = system: B/Florida/4/2006
B/Florida/4/2006 [19] = system: B/Florida/4/2006; remark: listed apart in the source
[20] = system: influenza A/CA/07/2009 (H1N1); assay: microbe, parasite or virus in culture; settings: H1N1, MDCK, read-out: IC50, Neutral Red Uptake Assay
[21] = system: Influenza A/Sydney/05/97 (H3N2); assay: microbe, parasite or virus in culture; settings: H3N2, MDCK, read-out: IC50, Visual Assay
[22] = system: A/Brisbane/10/2007 (H3N2); assay: microbe, parasite or virus in culture; settings: Influenza A virus, H3N2, MDCK, read-out: IC50, Visual Assay
[23] = system: A/Brisbane/10/2007 (H3N2); assay: microbe, parasite or virus in culture; settings: Influenza A virus, H3N2, MDCK, read-out: IC50, Neutral Red Uptake Assay
[24] = system: A/Hong Kong/213/2003H (A/Hong Kong/213/2003 × Ann Arbor/6/60 hybrid); assay: microbe, parasite or virus in culture; settings: Influenza A virus, H1N1|H5N1, MDCK, read-out: IC50, Visual Assay
[25] = system: A/Hong Kong/213/2003H (A/Hong Kong/213/2003 × Ann Arbor/6/60 hybrid); assay: microbe, parasite or virus in culture; settings: Influenza A virus, H1N1|H5N1, MDCK, read-out: IC50, Neutral Red Uptake Assay
[26] = system: A/Vietnam/1203/04H (A/Vietnam/1203/04 × Ann Arbor/6/60 hybrid); assay: microbe, parasite or virus in culture; settings: Influenza A virus, H1N1|H5N1, MDCK, read-out: IC50, Visual Assay
[27] = system: A/Vietnam/1203/04H (A/Vietnam/1203/04 × Ann Arbor/6/60 hybrid); assay: microbe, parasite or virus in culture; settings: Influenza A virus, H1N1|H5N1, MDCK, read-out: IC50, Neutral Red Uptake Assay
A/Gull/PA/4175/83 (H5N1) [28] = assay: microbe, parasite or virus in culture; settings: Influenza A virus, H5N1, MDCK, read-out: IC50, Neutral Red Uptake Assay
A/Duck/MN/1525/81 (H5N1) [29] = assay: microbe, parasite or virus in culture; settings: Influenza A virus, H5N1, MDCK, read-out: IC50, Visual Assay
A/Duck/MN/1525/81 (H5N1) [30] = assay: microbe, parasite or virus in culture; settings: Influenza A virus, H5N1, MDCK, read-out: IC50, Neutral Red Uptake Assay
B/Malaysia/2506/2004 [31] = assay: microbe, parasite or virus in culture; settings: Influenza B virus, MDCK, read-out: IC50, Visual Assay
B/Malaysia/2506/2004 [32] = assay: microbe, parasite or virus in culture; settings: Influenza B virus, MDCK, read-out: IC50, Neutral Red Uptake Assay
B/Florida/4/2006 [33] = assay: microbe, parasite or virus in culture; settings: Influenza B virus, MDCK, read-out: IC50, Visual Assay
[34] = MDCK, read-out: IC90 values, range over viruses of Table 3

Structure (SMILES)	IC90 [1] [nM]	IC90 [2] [nM]	IC90 [3] [nM]	IC90 [4] [nM]	IC90 (A/Gull/PA/4175/83 (H5N1) [5]) [nM]	IC90 (A/Duck/MN/1525/81 (H5N1) [6]) [nM]	IC90 (B/Florida/4/2006 [7]) [nM]	IC90 (influenza viruses; [34]) [nM]	SI (CC50/IC50), Visual Assay [8]	SI (CC50/IC50), Neutral Red Uptake Assay [9]	SI (CC50/IC50), Neutral Red Uptake Assay [10]	SI (CC50/IC50), Neutral Red Uptake Assay [11]	SI (CC50/IC50), Neutral Red Uptake Assay [12]	SI (CC50/IC50), Visual Assay (A/Gull/PA/4175/83 (H5N1) [13])	SI (CC50/IC50), Neutral Red Uptake Assay (A/Gull/PA/4175/83 (H5N1) [14])	SI (CC50/IC50), Neutral Red Uptake Assay (A/Duck/MN/1525/81 (H5N1) [15])	SI (CC50/IC50), Visual Assay (B/Malaysia/2506/2004 [16])	SI (CC50/IC50), Neutral Red Uptake Assay (B/Malaysia/2506/2004 [17])	SI (CC50/IC50), Visual Assay (B/Florida/4/2006 [18])	SI (CC50/IC50), Neutral Red Uptake Assay (B/Florida/4/2006 [19])	further results
Nc1ccn([C@@H]2O[C@H](CO)[C@@H](O)C2(F)F)c(=O)n1 [2’-deoxy-2’, 2’-difluorocytidine, reference compound]	130	1600	40	320	130	250	1700	30 to 2100	11.7	6.9	5.7	8.1	>1538	>480	370	>880	>3100	>1500	>1400	>440	IC50 [20]: 160 nM; IC50 [21]: 180 nM; IC50 [22]: 130 nM; IC50 [23]: 160 nM; IC50 [24]: < 32 nM; IC50 [25]: 65 nM; IC50 [26]: < 320 nM; IC50 [27]: < 320 nM; IC50 (A/Gull/PA/4175/83 (H5N1) [28]): 270 nM; IC50 (A/Duck/MN/1525/81 (H5N1) [29]): < 320 nM; IC50 (A/Duck/MN/1525/81 (H5N1) [30]): < 320 nM; IC50 (B/Malaysia/2506/2004 [31]): < 32 nM; IC50 (B/Malaysia/2506/2004 [32]): 68 nM; IC50 (B/Florida/4/2006 [33]): < 320 nM
Nc1ccn([C@@H]2O[C@H](CO)[C@@H](O)[C@H]2F)c(=O)n1 [2’-deoxy-2’-fluorocytidine, 2'-deoxy-2'-fluorocytidine]	4600	6700	5100	2900	6100	5900	2100	1200 to 7300	>31	>24	>40	>7.1	>14	>110	>91	>480	>53	>24	>100	>71	IC90 (influenza viruses; H1N1|H3N2, MDCK, read-out: IC90 values, range for the H3N2 and H1N1 viruses tested): 4600 to 6800 nM; IC90 (influenza viruses; H1N1|H5N1, MDCK, read-out: IC90 values, range for the hybrid H1N1 viruses expressing the H5N1 HA and NA proteins): 2900 to 5100 nM; IC50 [20]: 4100 nM; IC50 [21]: 590 nM; IC50 [22]: 1000 nM; IC50 [23]: 14000 nM; IC50 [24]: 1300 nM; IC50 [25]: 7200 nM; IC50 [26]: 2100 nM; IC50 [27]: 3400 nM; IC50 (A/Gull/PA/4175/83 (H5N1) [28]): 1100 nM; IC50 (A/Duck/MN/1525/81 (H5N1) [29]): 250 nM; IC50 (A/Duck/MN/1525/81 (H5N1) [30]): 210 nM; IC50 (B/Malaysia/2506/2004 [31]): 1900 nM; IC50 (B/Malaysia/2506/2004 [32]): 4100 nM; IC50 (B/Florida/4/2006 [33]): 1000 nM
